Measured values published in paper PMC7545998, “A snake toxin as a theranostic agent for the type 2 vasopressin receptor” (Theranostics, 2020).

Legend:
[1] = test system: Sprague-Dawley rats; test: Pharmacodynamics: diuresis and urine osmolality after single i.p. injection; assay type: in vivo, rat; design: k value of diuresis over time, first phase / k value of diuresis over time, second phase: unit not given here; conditions: for maximal diuresis: between first and second h post-injection; for half-life of diuresis decrease: mono-exponential
Procedure: Diuresis was maximal between the first and second h post-injection (pi), with volumes of 29.5, 45.6, 70.9, 67.6 and 79.1 mL/kg/h for the doses of 3, 10, 30, 100 and 356 nmol/kg, respectively (Figure 3C). […] For the highest dose of 356 nmol/kg, the diuresis decreased quickly during the first 4 h and then lasted for four days.
(§1) Sprague-Dawley rats are aged between 6 and 12 weeks, between 237 g and 545 g and were use up to 3 times. […] Urine was collected at various times, and centrifuged for 30 min at 20,800 g. Urine osmolality was determined with an osmometer (Knauer, Berlin, Germany). For the pharmacokinetic experiments, a catheter was implanted in the rat jugular vein five days before the experiment. Blood samples of 400 μl were taken at various times under heparin conditions. Blood was centrifuged at 2000 g for 5 min at 4 °C and plasma was frozen at -20 °C.
Sample preparation is described in Table S1. […] The mobile phase consisted of 0.1% formic acid in water (A) and 0.1% formic acid in acetonitrile (B) running in a gradient mode from B 2% to B 100% in 3 min. […] The mass spectrometer was operated in positive ESI and MRM mode. […] A model was selected based on the extravascular (i.p.) route of administration. For the i.p. route, concentration at time zero was assumed to be zero. For each rat, the first concentration below the LLOQ was set at LLOQ/2 for calculation of PK parameters. The area under the plasma concentration versus time curve (AUC) was calculated using the linear trapezoidal method (linear interpolation). When appropriate, the terminal elimination phase of the PK profile was estimated based on the best fit (r^2) using at least the last six observed concentrations. […] The same approach was used to model diuresis over time and two k values were obtained as 0.37774 and 0.02326. Lastly, the PK/PD correlation was achieved after calculating concentrations and diuresis volumes over time based on the equation y = A0*e^-kt where A0 was the computed concentration or diuresis volume at the origin of each phase.

[2] = test system: Sprague-Dawley rats; test: Diuresis and urine osmolality with daily i.p. injection of 3 nmol/kg for 4 days; assay type: in vivo, rat; conditions: daily i.p. 3 nmol/kg; for Diuresis Average / Excretion Average / Osmolarity Average: N=5
Procedure: We injected this dose daily for 4 days and measured urine volume and osmolality.
as §1

[3] = test system: porcine kidney epithelial cells LLC-pk1; test: Confocal imaging of endogenous V2R in LLC-pk1 cells; assay type: cell-based; conditions: 3.4 µM, 30-min pre-incubation
Procedure: In cells endogenously expressing V2R, such as porcine kidney epithelial cells LLC-pk1, labeling of V2R with AFDye-488-MQ1 and Cy5.5-MQ1 (100 nM) was performed with either fresh or PFA-fixed cells (Figures 7A and B). […] In the pathophysiological context, three renal cancer cell lines (CAKI-2, ACHN and A498 [38]) known to express V2R were tested. […] The presence of V2R, at the cell membrane level, fluctuated as a function of cell density and the number of cell divisions, whatever the cell line used. […] To our knowledge, this is the first specific ligand labeling of V2R in non-permeabilized cancer cells.
Freshly dissociated CHO, LLC-PK1 or renal cancer cell lines expressing vasopressin receptors were seeded on 12-mm glass coverslips pre-coated with poly-ornithine, cultured for 48 h before incubation in DMEM, 0.2 mg/mL BSA, 25 mM HEPES, pH 7.4 for 1 h at 12°C or 30 min at 22 °C with fluorescent analogues in the absence or presence of non-fluorescent ligands (30-min pre-incubation). After 3 washes with cold PBS, the cells were finally fixed in 4% PFA overnight at 4 °C and mounted with Mowiol. The fluorescent cells were imaged using a Zeiss LSM510 Meta confocal microscope equipped with a ×63 (NA 1.4) oil immersion objective. For excitation, available laser rays were 488 and 633 nm and emission signals were collected in multitracking mode with appropriate band pass filters. […]

[4] = test system: 156 other GPCRs (including V1aR, V1bR and OTR); conditions: at µM concentrations; cited from earlier work
Excerpt: Named mambaquaretin (MQ1), this peptide was isolated from mamba snake venom.

[5] = 356 nmol/kg i.p., bi-exponential analysis
[6] = single i.p. 1 nmol/kg, 0-24 h, n=6
[7] = single i.p. 3 nmol/kg, 0-24 h, n=6
[8] = single i.p. 3 nmol/kg, 24 - 48 h, n=6
[9] = single i.p. 10 nmol/kg, 0-24 h, n=11
[10] = single i.p. 10 nmol/kg, 24 - 48 h, n=11
[11] = single i.p. 30 nmol/kg, 0-24 h, n=11
[12] = single i.p. 30 nmol/kg, 24 - 48 h, n=11
[13] = single i.p. 100 nmol/kg, 0-24 h, n=12
[14] = single i.p. 100 nmol/kg, 24 - 48 h, n=12
[15] = single i.p. 356 nmol/kg, 0-24 h, n=17
[16] = single i.p. 356 nmol/kg, 24 - 48 h, n=17
[17] = single i.p. 356 nmol/kg, 72 h (24-h period), n=12
[18] = single i.p. 356 nmol/kg, 96 h (24-h period), n=12

## mambaquaretin [MQ1]
[1]; 3 nmol/kg i.p.
  maximal diuresis: 0.492 mL/min/kg
  half-life of diuresis decrease: 3.7 h
[1]; 10 nmol/kg i.p.
  maximal diuresis: 0.76 mL/min/kg
  half-life of diuresis decrease: 2.4 h
[1]; 30 nmol/kg i.p.
  maximal diuresis: 1.18 mL/min/kg
  half-life of diuresis decrease: 2.4 h
[1]; 100 nmol/kg i.p.
  maximal diuresis: 1.13 mL/min/kg
  half-life of diuresis decrease: 1.2 h
[1]; 356 nmol/kg i.p.
  maximal diuresis: 1.32 mL/min/kg
[1]; [5]
  fast half-life (T1/2α) of diuresis: 1.2 h
  slow half-life (T1/2β) of diuresis: 27.3 h
[1]; 356 nmol/kg i.p., modelled
  k value of diuresis over time, first phase: 0.3777
  k value of diuresis over time, second phase: 0.02326
[1]; single 1 nmol/kg i.p.
  diuresis and osmolality compared to control: statistically unchanged
[1]; [6]
  Diuresis Average: 0.039 mL/min/kg
  Excretion Average: 2206 µosm/h/kg
  Osmolarity Averag: 1158 mOsmol/kgH2O
[1]; [7]
  Diuresis Average: 0.0855 mL/min/kg
  Excretion Average: 2710 µosm/h/kg
  Osmolarity Averag: 503 mOsmol/kgH2O
[1]; [8]
  Diuresis Average: 0.0255 mL/min/kg
  Excretion Average: 3077 µosm/h/kg
  Osmolarity Averag: 2000 mOsmol/kgH2O
[1]; [9]
  Diuresis Average: 0.13 mL/min/kg
  Excretion Average: 2092 µosm/h/kg
  Osmolarity Averag: 273 mOsmol/kgH2O
[1]; [10]
  Diuresis Average: 0.0263 mL/min/kg
  Excretion Average: 2117 µosm/h/kg
  Osmolarity Averag: 1332 mOsmol/kgH2O
[1]; [11]
  Diuresis Average: 0.1742 mL/min/kg
  Excretion Average: 2280 µosm/h/kg
  Osmolarity Averag: 214 mOsmol/kgH2O
[1]; [12]
  Diuresis Average: 0.0375 mL/min/kg
  Excretion Average: 2064 µosm/h/kg
  Osmolarity Averag: 937 mOsmol/kgH2O
[1]; [13]
  Diuresis Average: 0.2138 mL/min/kg
  Excretion Average: 2046 µosm/h/kg
  Osmolarity Averag: 162 mOsmol/kgH2O
[1]; [14]
  Diuresis Average: 0.0457 mL/min/kg
  Excretion Average: 1930 µosm/h/kg
  Osmolarity Averag: 703 mOsmol/kgH2O
[1]; [15]
  Diuresis Average: 0.3492 mL/min/kg
  Excretion Average: 2658 µosm/h/kg
  Osmolarity Averag: 136 mOsmol/kgH2O
[1]; [16]
  Diuresis Average: 0.161 mL/min/kg
  Excretion Average: 2617 µosm/h/kg
  Osmolarity Averag: 283 mOsmol/kgH2O
[1]; [17]
  Diuresis Average: 0.1 mL/min/kg
  Excretion Average: 2617 µosm/h/kg
  Osmolarity Averag: 455 mOsmol/kgH2O
[1]; [18]
  Diuresis Average: 0.0627 mL/min/kg
  Excretion Average: 2838 µosm/h/kg
  Osmolarity Averag: 754 mOsmol/kgH2O
[2]; day 1
  half-life of diuresis decrease: 1.6 h
[2]; day 1, 24-h period
  Diuresis Average: 0.105 mL/min/kg
  Excretion Average: 1919 µOsm/h/kg
  Osmolarity Average: 328 mOsm/kg H2O
[2]; day 2
  half-life of diuresis decrease: 1.3 h
[2]; day 2, 24-h period
  Diuresis Average: 0.0983 mL/min/kg
  Excretion Average: 1820 µOsm/h/kg
  Osmolarity Average: 317 mOsm/kg H2O
[2]; day 3
  half-life of diuresis decrease: 1.3 h
[2]; day 3, 24-h period
  Diuresis Average: 0.1 mL/min/kg
  Excretion Average: 1805 µOsm/h/kg
  Osmolarity Average: 313 mOsm/kg H2O
[2]; day 4
  half-life of diuresis decrease: 1.6 h
[2]; day 4, 24-h period
  Diuresis Average: 0.095 mL/min/kg
  Excretion Average: 1940 µOsm/h/kg
  Osmolarity Average: 326 mOsm/kg H2O
[3]
  effect on labeling by AFDye-488-MQ1 and Cy5.5-MQ1: inhibited the labeling
[4]
  affinity for 156 other GPCRs (including V1aR, V1bR and OTR): no affinity
